Assay [1] has as its system Amblyomma americanum. Briefly: tick toxicity (compound in blood meal or injected). It is filed as in vivo. As to conditions: for mortality rate: in blood meal. An excerpt:
A failure to osmoregulate during blood feeding would result in a buildup of ions at toxic concentrations into the hemocoel.

For assay [2], the system named is isolated tick salivary gland. In words: fluid secretion (salivation) in the isolated tick salivary gland, modified Ramsay assay. Also noted: species or system Amblyomma americanum. To be noted: for total salivation volume: control 150 nL/5 min; for IC50: read-out: IC50 inhibition of salivation.
In assay [3] the test system is Amblyomma americanum. Briefly: tick blood feeding with compound included in the blood meal. It is filed as in vivo. As to conditions: for average detachments during blood feeding: control 0.11.
Excerpt: All ticks were observed attempting to feed by including rhodamine B, a fluorescent tracer, in the blood meal.
For assay [4], the system named is isolated tick salivary gland. Briefly: ion secretion in saliva of the isolated tick salivary gland. More on the design: species or system Amblyomma americanum.
The test system of assay [5] is Aedes aegypti mosquitoes. Briefly: saliva collection from live mosquito after injection. The format is in vivo. As to conditions: control 1.4 μL. The text has this: We investigated the influence of Katp modulators on mosquito salivation and blood feeding. We employed an established assay to collect the saliva from a live mosquito.
Assay [6] deals with sugar and bitter cells of mosquito mouthparts. In words: electrophysiological recordings of maxilla gustatory sensilla.
In assay [7] the test system is Aedes aegypti mosquitoes. Briefly: mosquito blood feeding with compound exposure. As to conditions: compound added to blood. It is filed as in vivo. An excerpt:
Tolbutamide and glybenclamide are inhibitors of ATP-gated Kir channels.

Assay [8] concerns Chickungunya virus. Briefly: infection of mosquitoes by virus after blood meal. To be noted: in vivo.
The subject of assay [9] is mosquito Kin channels. As to conditions: in vitro; cited from earlier work.
Assay [10] concerns mosquitoes. As to conditions: in vivo; cited from earlier work.

Where two headings read alike, the source gives them in different places.

Regarding `CC(N=C(NC#N)Nc1ccncc1)C(C)(C)C` (racemic) [pinacidil, (±)-N-Cyano-N′-4-pyridinyl-N″-(1,2,2-trimethylpropyl)guanidine], the mortality rate is on record as 65% in assay [1] (day 1); 72% in assay [1] (day 2); 88% in [1] (day 3); 94% in assay [1] (day 4); 99% in assay [1] (day 5). In addition, the total salivation volume in assay [2] (600 μM pinacidil after pre-exposure to ATP) turned out to be 142 nL/5 min; in [2] (600 μM pinacidil) it was 40 nL/5 min. In assay [2] (10 minutes, isolated tick salivary gland), the “Effect on Salivation at 10 minutes (reduction)” value is recorded as “Reduced ~98%”. In addition, the 50% inhibitory concentration (IC50) (usually the point on the concentration scale where inhibition reaches its midpoint) was determined as 320000 nM in assay [2] (Amblyomma americanum, 10 min, 10 min of salivation); 250000 nM in assay [2] (Amblyomma americanum, 20 min, 20 min of salivation); 120000 nM in assay [2] (Amblyomma americanum, 0.5 h, 30 min of salivation). For the same molecule, the “reduction of salivary output / saliva secretion compared to control” value in [2] (isolated tick salivary gland) is recorded as 97%. Also, the “reduction of volume of blood ingested” value in assay [3] (400 μM in blood meal, throughout the course of feeding) is “up to 15 fold”. For the same molecule, the “average detachments during blood feeding” value in assay [3] amounted to 2.1 times per feeding. Besides, in assay [3] (day 6 of feeding, 400 μM, control 16±4), the “volume of blood ingested” value was 1.2±0.3 μL per day. Also, in [4], the “cations (K+ and Na+) concentrations excreted from the salivary glands” value is given as “significant reduction”. In assay [5], this molecule displayed a secreted saliva volume of 0.3 µL. Also, in assay [6], the “response of gustatory sensilla cells” value was “elicits a spike in the sugar and bitter cells”. The “reduction of total volume of blood consumed” value in assay [7] is on record as 99%. In assay [8], the “infection of mosquitoes by the virus after feeding on a blood meal” value is reported as “inhibited infection”.

Regarding `Cn1c(=O)c2c(ncn2Cc2ccc(C(C)(C)C)cc2)n(C)c1=O` [VU063], in [1] (exposed while feeding), the “pattern of mortality as a function of time compared with pinacidil” value was “nearly-identical pattern of mortality”. In assay [2], the “effect on salivation in the isolated salivary gland” value was “eliminated salivation”. Also, the concentration for half-maximal inhibition (IC50) in assay [2] (10 min of salivation) worked out at 772 nM; in [2] (20 min of salivation), 560 nM; in [2] (30 min of salivation), 410 nM. The “effect of pre-exposure of the gland to ATP on inhibition of salivation” value in assay [2] (pre-exposure to ATP) is reported as “negated the inhibitory effect”. Also, the tick body weights result in assay [3] (VU063 at 100 μM in blood meal) was “not statistically different from that of unfed ticks”. The “volume of ingested blood” value in assay [3] (compound in blood meal, VU063 at 100 μM) was “below the limits of detection”. The “average detachments during blood feeding” value in assay [3] turned out to be 3.6 times per feeding. Moreover, in assay [4], the “cations (K+ and Na+) concentrations excreted from the salivary glands” value is listed as “significant reduction”. The secreted saliva volume in assay [5] came to 0.1 µL. The “reduction of total volume of blood consumed” value in assay [7] came out at 99%.

On to `CCC(=O)N1c2ccc(S(=O)(=O)Nc3cccc(OC)c3)cc2CC1C` (stereo not shown) [VU625], for which, in assay [9], the IC50 was around 100 nM. Besides, in assay [10], the “topical toxicity to mosquitoes” value is “not topically toxic”.

Values taken from patent publication US11632953B2, “Method for controlling hematophagous or sap-feeding arthropods” (Board of Supervisors of Louisiana State University and …, priority 2016, dated 2023).
